Results on three compounds are retold here after ChEMBL document CHEMBL1158938, “In vitro effects of tremorgenic mycotoxins” (J Nat Prod, 1991).

Series [1] concerns Ileum. As to the kind of experiment: Induction of electrically-stimulated guinea pig ileum twitch contraction at 10 ng/ml relative to control in presence of hyoscine. It counts as functional, Cavia porcellus.
Series [2] relates to Ileum. As to the kind of experiment: Induction of electrically-stimulated guinea pig ileum twitch contraction at 10 ng/ml. As to conditions: Cavia porcellus. The class given is functional, tissue-based.
Series [3] concerns Ileum. Kind of series: Induction of electrically-stimulated guinea pig ileum twitch contraction at 100 ng/ml relative to control in presence of hyoscine. It counts as functional, Cavia porcellus.
A short description of series [4]: Tremorgenic activity in ip dosed mouse. It counts as ADME, organism-based. As to conditions: in vivo.
The subject of series [5] is Ileum. As to the kind of experiment: Induction of electrically-stimulated guinea pig ileum contraction at 100 ng/ml relative to control in presence of acetylcholine. The class given is functional, Cavia porcellus.
The test system of series [6] is Ileum. Kind of series: Induction of electrically-stimulated guinea pig ileum contraction at 10 ng/ml relative to control in presence of acetylcholine. It counts as functional, Cavia porcellus.
Series [7] relates to Ileum. Kind of series: Induction of electrically-stimulated guinea pig ileum contraction at 1 ug/ml relative to control in presence of acetylcholine. The class given is functional, Cavia porcellus.
Series [8] deals with Ileum. Kind of series: Induction of electrically-stimulated guinea pig ileum twitch contraction at 1 ug/ml relative to control in presence of hyoscine. It counts as functional, Cavia porcellus.
The test system of series [9] is Ileum. As to the kind of experiment: Induction of guinea pig ileum contraction. As to conditions: Cavia porcellus. It counts as functional, tissue-based.

The structures appear in SMILES notation. The source made the active and inactive calls. The rule behind the calls is not given here.

On to `COc1ccc2c3c4n(c2c1)[C@H](C=C(C)C)OOC(C)(C)C[C@@H]4N1C(=O)[C@@H]2CCCN2C(=O)[C@]1(O)[C@H]3O` [VERRUCULOGEN], for which the Activity was 7% with Ileum [1]; 11% in the series with Ileum [3]; 123% in the series on Ileum [5]; 127% with Ileum [6]; 109% with Ileum [7]; 14% with Ileum [8]. For the same compound, the Activity result with Ileum [9] is “Dose-dependent effect”. Further, in the series on Ileum [2], the outcome was Active. In series [4], this compound showed a 50% effective dose (ED50) of 0.39 mg/kg.

Take `C=C1Cc2ccc3[nH]c4c5c3c2[C@H]2[C@@H]1C[C@@H]2C(C)(C)O[C@H]5[C@@H]1CC[C@@]2(O)[C@@]35O[C@@H]3[C@@H](O)[C@@H](C(=C)C)O[C@H]5CC[C@]2(C)[C@@]41C` [PENITREM B]: the Activity in the series with Ileum [1] amounted to 12%; in the series on Ileum [3], 10%; with Ileum [5], 96%; in the series on Ileum [6], 111%; in the series on Ileum [7], 117%; in the series with Ileum [8] it was 10%. The compound also returned an ED50 in series [4] of 5 mg/kg.

`CC(C)(O)[C@H]1O[C@H]2CC[C@@]3(C)[C@@](O)(CC[C@H]4Cc5c([nH]c6ccccc56)[C@@]43C)C2=CC1=O` [PAXILLINE]: the Activity was 9% with Ileum [1]; 11% with Ileum [3]; 118% with Ileum [5]; 121% with Ileum [6]; 126% with Ileum [7]; 2% in the series on Ileum [8]. Moreover, the Activity result in the series with Ileum [9] is “Dose-dependent effect”. For the same compound, the median effective dose (ED50) in series [4] was determined as 25 mg/kg.
